Source: PMC6233306 (Bioorganic & medicinal chemistry letters, 2018)

system: FadD32 mutant strains of Mtb (E120 and F291); format: cell-based, Mycobacterium tuberculosis

Row | Compound | activity versus the E120 and F291 mutants compared to wild-type | FadD32 mutant MIC90 [µM]
1 | CNC(=O)c1cc(-c2ccccc2Cl)c2c(C)c(-c3ccncc3)c(C)cc2n1 [Compound 21b] | markedly less activity | –
2 | Cc1cc2nccc(-c3ccnn3C)c2c(C)c1-c1ccc(CN2CCOCC2)cc1 [Compound 15m] | markedly less activity | 100
3 | Cc1cc2nccc(-c3cncnc3)c2c(C)c1-c1ccc(CN2CCOCC2)cc1 [Compound 15n] | markedly less activity | 100
4 | Cc1cc2nccc(-c3ccccc3)c2c(C)c1-c1ccc(CN2CCOCC2)cc1 [Compound 8] | markedly less activity | –
